In ChEMBL document CHEMBL1145933, “Novel sst(4)-selective somatostatin (SRIF) agonists. 1. Lead identification using a betide scan” (J Med Chem, 2003):
Where a SMILES comes first, the peptide text is derived from it. Bridges are numbered along the chain shown (N, C = ends). [ ]: non-standard residue; d: D form.

Assays:
[1] = target: Somatostatin receptor type 5 (Homo sapiens, UniProt P35346); assay: Binding affinity towards human Somatostatin receptor type 5 using 125I-[Leu,DTrp,Tyr]SRIF-28 as radioligand
[2] = target: Somatostatin receptor type 1 (Homo sapiens, UniProt P30872); assay: Binding affinity towards human Somatostatin receptor type 1 using 125I-[Leu,DTrp,Tyr]SRIF-28 as radioligand
[3] = target: Somatostatin receptor type 3 (Homo sapiens, UniProt P32745); assay: Binding affinity towards human Somatostatin receptor type 3 using 125I-[Leu,DTrp,Tyr]SRIF-28 as radioligand
[4] = target: Somatostatin receptor type 4 (Homo sapiens, UniProt P31391); assay: Binding affinity towards human Somatostatin receptor type 4 using 125I-[Leu,DTrp,Tyr]SRIF-28 as radioligand
[5] = target: Somatostatin receptor type 2 (Homo sapiens, UniProt P30874); assay: Binding affinity towards human Somatostatin receptor type 2 using 125I-[Leu,DTrp,Tyr]SRIF-28 as radioligand
Somatostatin receptor type 2, sequence (P30874 whole entry): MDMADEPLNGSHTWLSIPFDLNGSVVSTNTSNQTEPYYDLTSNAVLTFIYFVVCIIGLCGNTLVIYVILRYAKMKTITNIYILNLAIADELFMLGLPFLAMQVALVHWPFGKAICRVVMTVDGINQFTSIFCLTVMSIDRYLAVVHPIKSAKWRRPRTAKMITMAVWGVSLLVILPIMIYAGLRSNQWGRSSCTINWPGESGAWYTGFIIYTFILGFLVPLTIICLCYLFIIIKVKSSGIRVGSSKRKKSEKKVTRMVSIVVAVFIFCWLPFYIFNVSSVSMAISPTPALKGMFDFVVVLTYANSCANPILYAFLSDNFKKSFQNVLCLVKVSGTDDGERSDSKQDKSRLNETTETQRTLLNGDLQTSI

Somatostatin receptor type 1, sequence (P30872 whole entry): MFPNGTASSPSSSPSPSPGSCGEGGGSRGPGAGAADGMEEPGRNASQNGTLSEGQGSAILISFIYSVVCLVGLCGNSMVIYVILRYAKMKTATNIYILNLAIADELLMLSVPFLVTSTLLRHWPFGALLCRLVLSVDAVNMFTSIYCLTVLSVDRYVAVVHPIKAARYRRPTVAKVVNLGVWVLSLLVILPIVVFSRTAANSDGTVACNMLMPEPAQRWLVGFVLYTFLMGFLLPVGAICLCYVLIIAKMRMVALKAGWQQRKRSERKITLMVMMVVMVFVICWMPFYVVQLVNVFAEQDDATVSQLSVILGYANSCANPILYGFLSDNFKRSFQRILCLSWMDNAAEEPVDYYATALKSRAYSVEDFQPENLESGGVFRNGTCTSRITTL
Somatostatin receptor type 4, sequence (P31391 whole entry): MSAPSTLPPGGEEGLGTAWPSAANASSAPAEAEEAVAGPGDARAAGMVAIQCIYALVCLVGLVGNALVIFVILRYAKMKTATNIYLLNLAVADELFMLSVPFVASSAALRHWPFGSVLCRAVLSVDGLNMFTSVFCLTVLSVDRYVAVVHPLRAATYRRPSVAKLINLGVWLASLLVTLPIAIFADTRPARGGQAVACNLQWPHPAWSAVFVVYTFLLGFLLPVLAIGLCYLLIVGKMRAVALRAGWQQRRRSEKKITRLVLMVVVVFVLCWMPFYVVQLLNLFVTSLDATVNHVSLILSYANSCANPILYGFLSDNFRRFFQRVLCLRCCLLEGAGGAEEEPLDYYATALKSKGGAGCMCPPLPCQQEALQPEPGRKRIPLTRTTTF
Somatostatin receptor type 5, sequence (P35346 whole entry): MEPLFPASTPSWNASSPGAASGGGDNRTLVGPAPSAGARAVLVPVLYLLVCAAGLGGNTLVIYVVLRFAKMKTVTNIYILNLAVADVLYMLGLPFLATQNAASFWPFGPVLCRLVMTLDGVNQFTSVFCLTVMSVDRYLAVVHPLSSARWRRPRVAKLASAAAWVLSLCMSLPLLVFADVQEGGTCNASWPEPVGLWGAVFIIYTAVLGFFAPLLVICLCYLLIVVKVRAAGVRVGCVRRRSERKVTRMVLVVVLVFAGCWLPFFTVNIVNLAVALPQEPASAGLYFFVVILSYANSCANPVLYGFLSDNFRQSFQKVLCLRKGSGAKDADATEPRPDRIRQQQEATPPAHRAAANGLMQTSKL
Somatostatin receptor type 3, sequence (P32745 whole entry): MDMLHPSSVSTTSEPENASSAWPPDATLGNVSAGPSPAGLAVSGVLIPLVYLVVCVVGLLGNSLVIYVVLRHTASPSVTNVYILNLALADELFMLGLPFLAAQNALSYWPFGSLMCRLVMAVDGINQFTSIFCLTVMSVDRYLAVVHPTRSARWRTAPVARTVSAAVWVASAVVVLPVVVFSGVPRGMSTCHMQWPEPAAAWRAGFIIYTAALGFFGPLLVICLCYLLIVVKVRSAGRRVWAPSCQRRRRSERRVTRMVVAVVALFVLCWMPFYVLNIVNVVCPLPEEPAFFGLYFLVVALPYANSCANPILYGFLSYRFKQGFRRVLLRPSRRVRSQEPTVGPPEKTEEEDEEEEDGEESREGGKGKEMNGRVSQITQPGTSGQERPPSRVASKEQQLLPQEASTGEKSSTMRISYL

Row | SMILES | IC50 [1] [nM] | IC50 [2] [nM] | IC50 [3] [nM] | IC50 [4] [nM] | IC50 [5] [nM]
1 | C[C@@H](O)[C@@H]1NC(=O)[C@H](CCCCN)NC(=O)[C@H](Cc2c[nH]c3ccccc23)NC(=O)[C@H](N(C)C(=O)c2ccccc2)NC(=O)[C@H](Cc2ccccc2)NC(=O)[C@@H](N)CSSC[C@@H](C(=O)O)NC(=O)[C@H](Cc2ccccc2)NC1=O | > 1000 | > 10000 | 403 | 5.4 | > 1000
2 | C[C@@H](O)[C@@H]1NC(=O)[C@H](CCCCN)NC(=O)[C@@H](Cc2c[nH]c3ccccc23)NC(=O)[C@H](N(C)C(=O)c2ccccc2)NC(=O)[C@H](Cc2ccccc2)NC(=O)[C@H](N)CSSC[C@@H](C(=O)O)NC(=O)[C@H](Cc2ccccc2)NC1=O (stereo in doubt; 10) | 460 | > 1000 | 382 | 3.4 | 533
3 | C[C@@H](O)[C@@H]1NC(=O)[C@H](N(C)C(=O)CCN)NC(=O)[C@@H](Cc2c[nH]c3ccccc23)NC(=O)[C@H](Cc2ccccc2)NC(=O)[C@H](Cc2ccccc2)NC(=O)[C@@H](N)CSSC[C@@H](C(=O)O)NC(=O)[C@H](Cc2ccccc2)NC1=O | > 1000 | > 1000 | > 1000 | > 1000 | > 1000
4 | C[C@@H](O)[C@@H]1NC(=O)[C@@H](N(C)C(=O)CCN)NC(=O)[C@@H](Cc2c[nH]c3ccccc23)NC(=O)[C@H](Cc2ccccc2)NC(=O)[C@H](Cc2ccccc2)NC(=O)[C@@H](N)CSSC[C@@H](C(=O)O)NC(=O)[C@H](Cc2ccccc2)NC1=O | > 1000 | > 10000 | > 1000 | 429 | > 10000
5 | C[C@@H](O)[C@@H]1NC(=O)[C@H](CCCCN)NC(=O)[C@@H](Cc2c[nH]c3ccccc23)NC(=O)[C@H](Cc2ccccc2)NC(=O)[C@H](Cc2ccccc2)NC(=O)[C@@H](N)CSSC[C@@H](C(=O)O)NC(=O)[C@@H](N(C)C(=O)c2ccccc2)NC1=O | > 1000 | > 10000 | > 1000 | 80 | > 1000
6 | C[C@@H](O)[C@@H]1NC(=O)[C@H](CCCCN)NC(=O)[C@@H](Cc2c[nH]c3ccccc23)NC(=O)[C@H](Cc2ccccc2)NC(=O)[C@H](N(C)C(=O)c2ccccc2)NC(=O)[C@@H](N)CSSC[C@@H](C(=O)O)NC(=O)[C@H](Cc2ccccc2)NC1=O (stereo in doubt; 5) | – | > 10000 | – | > 1000 | > 1000
7 | CN(C(=O)CO)[C@H]1NC(=O)[C@H](CCCCN)NC(=O)[C@@H](Cc2c[nH]c3ccccc23)NC(=O)[C@H](Cc2ccccc2)NC(=O)[C@H](Cc2ccccc2)NC(=O)[C@@H](N)CSSC[C@@H](C(=O)O)NC(=O)[C@H](Cc2ccccc2)NC1=O (stereo in doubt; 21) | 389 | 860 | > 1000 | 38 | > 1000
8 | C[C@@H](O)[C@@H]1NC(=O)[C@H](CCCCN)NC(=O)[C@@H](Cc2c[nH]c3ccccc23)NC(=O)[C@H](Cc2ccccc2)NC(=O)[C@H](Cc2ccccc2)NC(=O)[C@@H](N)CSSC[C@@H](C(=O)O)NC(=O)[C@H](Cc2ccccc2)NC1=O (H-CFF[dW]KTFC-OH; disulfide 1-8) | 14 | 5.3 | – | 0.7 | 130
9 | C[C@@H](O)[C@@H]1NC(=O)[C@H](CCCCN)NC(=O)[C@H](Cc2c[nH]c3ccccc23)NC(=O)[C@H](Cc2ccccc2)NC(=O)[C@H](Cc2ccccc2)NC(=O)[C@@H](N)CSSC[C@@H](C(=O)O)NC(=O)[C@H](Cc2ccccc2)NC1=O (H-CFFWKTFC-OH; disulfide 1-8) | 46 | 27 | – | 1.8 | 41
10 | C[C@@H](O)[C@@H]1NC(=O)[C@H](CCCCN)NC(=O)[C@@H](Cc2c[nH]c3ccccc23)NC(=O)[C@H](N(C)C(=O)c2ccccc2)NC(=O)[C@H](Cc2ccccc2)NC(=O)[C@H](N)CSSC[C@@H](C(=O)O)NC(=O)[C@H](Cc2ccccc2)NC1=O (stereo in doubt; 11) | – | – | 136 | 31 | –
11 | C[C@@H](O)[C@@H]1NC(=O)[C@H](CCCCN)NC(=O)[C@@H](Cc2c[nH]c3ccccc23)NC(=O)[C@H](Cc2ccccc2)NC(=O)[C@H](N(C)C(=O)c2ccccc2)NC(=O)[C@@H](N)CSSC[C@@H](C(=O)O)NC(=O)[C@H](Cc2ccccc2)NC1=O (stereo in doubt; 4) | > 1000 | 667 | > 10000 | 14 | 374
12 | C[C@@H](O)[C@@H]1NC(=O)[C@H](CCCCN)NC(=O)[C@@H](Cc2c[nH]c3ccccc23)NC(=O)[C@H](N(C)C(=O)c2ccccc2)NC(=O)[C@H](Cc2ccccc2)NC(=O)[C@H](N)CSSC[C@@H](C(=O)O)NC(=O)[C@H](Cc2ccccc2)NC1=O (stereo in doubt; 8) | 768 | – | 447 | 5.2 | 460
13 | COC(=O)[C@H](CCCN=C(N)N)NC(=O)CCCc1c(-c2ccccc2)[nH]c2c(F)cc(F)cc12 | > 10000 | > 1000 | > 1000 | – | > 1000
14 | C[C@@H](O)[C@@H]1NC(=O)[C@H](CCCCN)NC(=O)[C@@H](Cc2c[nH]c3ccccc23)NC(=O)[C@H](Cc2ccccc2)NC(=O)[C@H](Cc2ccccc2)NC(=O)[C@@H](N)CSSC[C@@H](C(=O)O)NC(=O)[C@H](N(C)C(=O)c2ccccc2)NC1=O | 220 | > 10000 | 235 | 6.9 | 455
15 | CN(C(=O)CO)[C@H]1NC(=O)[C@H](CCCCN)NC(=O)[C@@H](Cc2c[nH]c3ccccc23)NC(=O)[C@H](Cc2ccccc2)NC(=O)[C@H](Cc2ccccc2)NC(=O)[C@@H](N)CSSC[C@@H](C(=O)O)NC(=O)[C@H](Cc2ccccc2)NC1=O (stereo in doubt; 20) | 211 | 45 | > 1000 | 6.5 | > 1000
16 | C[C@@H](O)[C@@H]1NC(=O)[C@H](CCCCN)NC(=O)[C@@H](Cc2c[nH]c3ccccc23)NC(=O)[C@H](N(C)C(=O)c2ccccc2)NC(=O)[C@H](Cc2ccccc2)NC(=O)[C@H](N)CSSC[C@@H](C(=O)O)NC(=O)[C@H](Cc2ccccc2)NC1=O (stereo in doubt; 9) | – | – | > 1000 | 153 | –
17 | C[C@@H](O)[C@@H]1NC(=O)[C@@H](NC(=O)CCN)NC(=O)[C@@H](Cc2c[nH]c3ccccc23)NC(=O)[C@H](Cc2ccccc2)NC(=O)[C@H](Cc2ccccc2)NC(=O)[C@@H](N)CSSC[C@@H](C(=O)O)NC(=O)[C@H](Cc2ccccc2)NC1=O (stereo in doubt; 17) | > 10000 | > 10000 | > 1000 | > 1000 | > 1000
18 | C[C@@H](O)[C@@H]1NC(=O)[C@@H](NC(=O)CCN)NC(=O)[C@@H](Cc2c[nH]c3ccccc23)NC(=O)[C@H](Cc2ccccc2)NC(=O)[C@H](Cc2ccccc2)NC(=O)[C@@H](N)CSSC[C@@H](C(=O)O)NC(=O)[C@H](Cc2ccccc2)NC1=O (stereo in doubt; 16) | > 10000 | > 10000 | > 1000 | > 10000 | > 1000
19 | C[C@@H](O)[C@@H]1NC(=O)[C@H](CCCCN)NC(=O)[C@@H](Cc2c[nH]c3ccccc23)NC(=O)[C@H](N(C)C(=O)c2ccccc2)NC(=O)[C@H](Cc2ccccc2)NC(=O)[C@H](N)CSSC[C@@H](C(=O)O)NC(=O)[C@H](Cc2ccccc2)NC1=O (stereo in doubt; 7) | > 1000 | > 10000 | 725 | 133 | > 1000
